Numbers after ± are expanded uncertainties.
How the values were obtained:
[1] = Gas, Hot wire method
[2] = xn = mol fraction of the nth substance listed; conditions: Gas, Hot wire method

CCC(C)C [2-methylbutane]
thermal conductivity [W/m/K], [1]
Conditions	342.97 K	352.61 K	375 K	390.75 K
100 kPa	0.01954 ± 0.00039	0.02064 ± 0.00041	0.02347 ± 0.00045	0.02574 ± 0.00049
200 kPa	0.0196 ± 0.00039	0.02071 ± 0.00041	0.02356 ± 0.00045	0.0258 ± 0.00049
500 kPa	0.01976 ± 0.0004	0.02093 ± 0.00042	0.02385 ± 0.00046	0.026 ± 0.00049

CCC(C)C [2-methylbutane] + CCCCC
thermal conductivity [W/m/K], [2]
Conditions	100 kPa	200 kPa	500 kPa
345.26 K, x1 = 0.6232	0.01956 ± 0.00039	0.01963 ± 0.00039	0.01984 ± 0.0004
345.54 K, x1 = 0.1695	0.01924 ± 0.00039	0.01936 ± 0.00039	0.01973 ± 0.0004
346.28 K, x1 = 0.3293	0.01932 ± 0.00039	0.01941 ± 0.00039	0.0197 ± 0.0004
361.52 K, x1 = 0.3293	0.02107 ± 0.00042	0.02119 ± 0.00042	0.02156 ± 0.00042
362.08 K, x1 = 0.1695	0.02122 ± 0.00042	0.02131 ± 0.00042	0.02155 ± 0.00042
362.43 K, x1 = 0.6232	0.02163 ± 0.00042	0.02169 ± 0.00043	0.02187 ± 0.00043
378.03 K, x1 = 0.6232	0.02381 ± 0.00046	0.02382 ± 0.00046	0.02387 ± 0.00046
378.23 K, x1 = 0.1695	0.02312 ± 0.00045	0.02327 ± 0.00045	0.02372 ± 0.00046
378.57 K, x1 = 0.3293	0.02344 ± 0.00045	0.02346 ± 0.00045	0.02351 ± 0.00045
394.05 K, x1 = 0.6232	0.02586 ± 0.00049	0.02591 ± 0.00049	0.02605 ± 0.00049
394.45 K, x1 = 0.1695	0.02554 ± 0.00048	0.02558 ± 0.00048	0.02571 ± 0.00049
395.51 K, x1 = 0.3293	0.02569 ± 0.00049	0.02572 ± 0.00049	0.02578 ± 0.00049

CCCCC [pentane]
thermal conductivity [W/m/K], [1]
Conditions	342.97 K	366.02 K	380.86 K	407.37 K
100 kPa	0.01889 ± 0.00038	0.02169 ± 0.00043	0.02371 ± 0.00046	0.02719 ± 0.00051
200 kPa	0.01895 ± 0.00038	0.02176 ± 0.00043	0.02378 ± 0.00046	0.02728 ± 0.00051
500 kPa	0.01915 ± 0.00039	0.02198 ± 0.00043	0.02398 ± 0.00046	0.02754 ± 0.00051

From the NIST ThermoML archive (doi:10.1016/j.fluid.2007.07.059)
